Source: patent publication EP4592296A1, “NOVEL TETRAHETEROCYCLE COMPOUND” (Idience Co., Ltd., priority 2022, dated 2024)

Columns and labels:
[1] = target: T1, KRAS^G12D (Homo sapiens, UniProt P01116, G12D); assay: KRAS nucleotide exchange assay (SOS1-mediated, HTRF); format: biochemical; details: KRAS 20 nM, SOS1 12.5 nM, labeled GTP 0.15 µM, 60 min preincubation
T1 construct: GST-tagged KRAS WT or mutant proteins (amino acids 2-169)
Excerpt: (§1) Evaluation of the inhibitory effect of compounds on SOS1-mediated nucleotide exchange activity of KRAS^WT, KRAS^G12D, and KRAS^G12V mutants
(§2) A method to monitor SOS1-mediated exchange of unlabeled KRAS-bound GDP and fluorescently labeled GTP, based on energy transfer between the donor Tb cryptate-labeled GST antibody and the acceptor DY-647P1 GTP when they are in close proximity.
(§3) • GST-tagged KRAS WT or mutant proteins (amino acids 2-169), • SOS1(amino acids 564-1049), • Labeled GTP (GTP-DY-647P1), • Assay Buffer (20 mM HEPES pH 7.4, 150 mM NaCl, 5 mM MgCl2, 1 mM DTT, 0.05% BSA, 0.0025% NP40)
(§4) • 1. KRAS protein was diluted with assay buffer to 1.5 times the final concentration, mixed with Tb cryptate anti-GST antibody, and 10 µL was added to each assay well (final concentration was 20 nM for KRAS^WT, KRAS^G12D, and KRAS^G12V). • 2. The compound was dissolved in DMSO and then diluted to prepare 100 times the final concentration. • 3. Compounds were dispensed into assay wells using an ECHO acoustic dispenser (Beckman), gently mixed with the KRAS/Ab mixture, and incubated for 60 minutes. • 4. SOS1 and labeled GTP were mixed and diluted to 3 times the final concentration with assay buffer, and 5 µL of the solution was added to the assay well to initiate the reaction (final concentration of labeled GTP was 0.15 µM, final concentration of SOS1 was 7.5 nM in WT, 12.5 nM in G12D, and 50 nM in G12V). Blank wells contained only assay buffer and labeled GTP. • 5. The reaction was monitored at Ex/Em=(337/665; 337/620) using a Pherastar Plate Reader (BMG). • 6. The HTRF signal was analyzed approximately 25 minutes after the start of the reaction (G12V reacted for 60 minutes). • 7. Nucleotide exchange activity was expressed as a percentage difference compared to the DMSO reaction value, and the IC50 value was calculated based on the four-parameter logistic equation in GraphPad 4.0 software. HTRF signal = ems 665/ems 620∗10000 [formula]

[2] = target: T2, KRAS^G12V (Homo sapiens, UniProt P01116, G12V); assay: as above; format: biochemical; details: KRAS 20 nM, SOS1 50 nM, labeled GTP 0.15 µM, reacted 60 minutes
T2 construct: GST-tagged KRAS WT or mutant proteins (amino acids 2-169)
T2 sequence (P01116 2-169 isoform P01116-2 G12V): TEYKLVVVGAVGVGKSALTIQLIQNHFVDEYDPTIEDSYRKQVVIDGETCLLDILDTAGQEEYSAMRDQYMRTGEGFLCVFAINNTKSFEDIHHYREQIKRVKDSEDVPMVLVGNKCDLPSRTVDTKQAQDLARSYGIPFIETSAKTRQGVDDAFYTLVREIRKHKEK
Excerpt: as §1, §2, §3, §4

[3] = target: T3, KRAS G12C (Homo sapiens, UniProt P01116, G12C); assay: as above; format: biochemical; details: conditions for G12C not described
T3 construct: GST-tagged KRAS WT or mutant proteins (amino acids 2-169)
T3 sequence (P01116 2-169 isoform P01116-2 G12C): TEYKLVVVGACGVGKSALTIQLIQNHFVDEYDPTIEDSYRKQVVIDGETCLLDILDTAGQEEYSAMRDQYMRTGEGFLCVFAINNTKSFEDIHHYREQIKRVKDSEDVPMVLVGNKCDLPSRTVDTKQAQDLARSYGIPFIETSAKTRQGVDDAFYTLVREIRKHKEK

[4] = target: T4, KRAS G13D (Homo sapiens, UniProt P01116, G13D); assay: as above; format: biochemical; details: conditions for G13D not described
T4 construct: GST-tagged KRAS WT or mutant proteins (amino acids 2-169)
T4 sequence (P01116 2-169 isoform P01116-2 G13D): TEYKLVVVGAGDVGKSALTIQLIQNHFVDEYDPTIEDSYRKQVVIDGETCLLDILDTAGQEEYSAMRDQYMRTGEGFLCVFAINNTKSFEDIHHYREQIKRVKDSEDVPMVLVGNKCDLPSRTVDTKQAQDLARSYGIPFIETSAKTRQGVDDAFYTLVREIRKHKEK

[5] = system: AsPC-1 pancreatic cancer (KRAS G12D mutation) cells; assay: Cell proliferation assay (CellTiter-Glo cell viability); format: cell-based; details: AsPC-1 cells, CellTiter-Glo 2.0
Description: (§5) Cell viability test of test compounds in AsPC-1 pancreatic cancer (KRAS G12D mutation) or SW480 colon cancer (KRAS G12V mutation) cells for 72 hours
(§6) The reference compound Staurosporine was purchased from Sigma-Aldrich (Saint Louis, […]), and CellTiter-Glo® 2.0 Luminescent cell viability assay reagent (cat# G9243) was purchased from Promega (Madison, WI). AsPC-1 and SW480 cell lines were purchased from the American Type Culture Collection (Manassas, VA). AsPC-1 cells were cultured in RPMI-1640 (ATCC, cat#30-2001), and SW480 cells were cultured in DMEM (ATCC cat#30-2002), supplemented with 10% FBS (Sigma-Aldrich, cat#F2442) and 100 µg/mL penicillin-streptomycin (Sigma-Aldrich, cat#P4333). Cells were cultured at 37 °C in a humidified atmosphere of 5 % CO2 and 95 % air.
(§7) • 1. The test compound and reference compound Staurosporine were dissolved in DMSO solution to prepare 20 mM (test compound) and 10 mM (reference compound Staurosporine) in the Source Plate, and diluted 3-fold and 10 doses with DMSO. • 2. Ten volumes of 125 nL test compound or 25 nL reference compound from the Source Plate were dispensed into wells of a 384-well culture plate (VWR, cat#82050-076) using an Echo 655. • 3. 25 µL of culture medium including 2000 AsPC-1 or SW480 cells was dispensed into each 384-well cell culture plate. • 4. Cells were cultured with compounds at 37 °C, 5 % CO2for 72 hours. • 5. 25 µL of CellTiter-Glo 2.0 reagent was added to each well of the plate. • 6. The contents were mixed in an orbital shaker for 2 minutes and the luminescence signal was stabilized at room temperature for 15 minutes. • 7. Luminescence signals were measured with an Envision 2104 Multilabel Reader (PerkinElmer, Santa Clara, CA), and the number of viable cells was determined by quantifying the ATP present in each culture medium. • 8. IC50 values were calculated based on the sigmoidal dose-response equation in the GraphPad Prism 4 program.

[6] = system: SW480 colon cancer (KRAS G12V mutation) cells; assay: as above; format: cell-based; details: Homo sapiens, 72 hours, CellTiter-Glo 2.0
Description: as §5, §6, §7

[7] = target: T5, KRAS^WT (Homo sapiens, UniProt P01116); assay: KRAS nucleotide exchange assay (SOS1-mediated, HTRF); format: biochemical; details: KRAS 20 nM, SOS1 7.5 nM, labeled GTP 0.15 µM
T5 construct: GST-tagged KRAS WT or mutant proteins (amino acids 2-169)
T5 sequence (P01116 2-169 isoform P01116-2): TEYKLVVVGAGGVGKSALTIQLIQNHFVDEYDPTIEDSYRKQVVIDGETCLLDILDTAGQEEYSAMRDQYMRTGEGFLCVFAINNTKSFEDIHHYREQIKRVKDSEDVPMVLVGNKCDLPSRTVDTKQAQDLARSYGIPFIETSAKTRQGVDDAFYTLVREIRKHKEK
Excerpt: as §1, §2, §3, §4

T1 sequence (P01116 2-169 isoform P01116-2 G12D): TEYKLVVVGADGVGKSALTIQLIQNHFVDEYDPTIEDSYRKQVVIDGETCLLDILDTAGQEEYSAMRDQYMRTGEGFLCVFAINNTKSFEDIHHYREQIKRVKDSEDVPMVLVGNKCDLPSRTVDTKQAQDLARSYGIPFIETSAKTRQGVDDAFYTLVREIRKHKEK

Oc1cc(Cl)c(C2CC2)c(-c2nc3c4c(nc(OCC56CCCN5CC(F)C6)nc4c2F)N2CCNCC2CCO3)c1 [Example 4, 3-chloro-4-cyclopropyl-5-((S)-1-fluoro-12-(((2R,7aS)-2-fluorotetrahydro-1H-pyrrolizin-7a(5H)-yl)methoxy)-6,6a,7,8,9,10-hexahydro-5H-4-oxa-3,8,10a,11,13-pentaazabenzo[4,5]cycloocta[1,2,3-de]naphthalen-2-yl)phenol]
IC50 [1]: 0.0525 µM

Nc1nc2c(-c3c(Cl)c4c5c(nc(OC[C@@]67CCCN6C[C@H](F)C7)nc5c3F)N3CCCCCC3CO4)ccc(F)c2s1 (stereo partly drawn) [Example 6, 4-(3-chloro-1-fluoro-13-(((2R,7aS)-2-fluorotetrahydro-1H-pyrrolizin-7a(5H)-yl)methoxy)-5a,6,7,8,9,10-hexahydro-5H-azepino[2',1':3,4][1,4]oxazepino[5,6,7-de]quinazolin-2-yl)-7-fluorobenzo[d]thiazol-2-amine]
IC50 [1]: 0.0059 µM
IC50 [2]: 0.0059 µM
IC50 [3]: 0.00236 µM
IC50 [4]: 0.0111 µM
IC50 ([5]; Homo sapiens, ASPC1, 72 h): < 2 µM

Nc1nc2c(-c3c(Cl)c4c5c(nc(OC[C@@]67CCCN6C[C@H](F)C7)nc5c3F)N3CCNC[C@@H]3CCO4)ccc(F)c2s1 [Example 3, 4-((14aS)-11-chloro-9-fluoro-7-(((2R,7aS)-2-fluorotetrahydro-1H-pyrrolizin-7a(5H)-yl)methoxy)-1,3,4,13,14,14a-hexahydro-2H-pyrazino[1',2':5,6][1,5]oxazocino[4,3,2-de]quinazolin-10-yl)-7-fluorobenzo[d]thiazol-2-amine]
IC50 [1]: 0.00784 µM
IC50 ([5]; Homo sapiens, ASPC1, 72 h): 2 to 20 µM

Nc1nc2c(-c3c(Cl)c4c5c(nc(OC[C@@]67CCCN6C[C@H](F)C7)nc5c3F)N3CCCOC[C@H]3CO4)ccc(F)c2s1 [Example 7, 4-((14aS)-12-chloro-10-fluoro-8-(((2R,7aS)-2-fluorotetrahydro-1H-pyrrolizin-7a(5H)-yl)methoxy)-4,5,14,14a-tetrahydro-1H,3H-[1,4]oxazepino[3',4':3,4][1,4]oxazepino[5,6,7-de]quinazolin-11-yl)-7-fluorobenzo[d]thiazol-2-amine]
IC50 ([5]; Homo sapiens, ASPC1, 72 h): < 2 µM

N#Cc1c(N)sc2c(F)ccc(-c3c(Cl)c4c5c(nc(OC[C@@]67CCCN6C[C@H](F)C7)nc5c3F)N3CCCCC[C@H]3CO4)c12 [Example 11b, 2-amino-4-(3-chloro-1-fluoro-13-(((2R,7aS)-2-fluorotetrahydro-1H-pyrrolizin-7a(5H)-yl)methoxy)-5a,6,7,8,9,10-hexahydro-5H-azepino[2',1':3,4][1,4]oxazepino[5,6,7-de]quinazolin-2-yl)-7-fluorobenzo[b]thiophene-3-carbonitrile]
IC50 ([5]; Homo sapiens, ASPC1, 72 h): < 2 µM

N#Cc1c(N)sc2c(F)ccc(-c3c(Cl)c4c5c(nc(OC[C@@]67CCCN6C[C@H](F)C7)nc5c3F)N3CCCOC[C@H]3CO4)c12 (single isomer, unassigned) [Example 12a]
IC50 ([5]; 72 hours): 2 to 20 µM

C#Cc1c(F)ccc2cc(O)cc(-c3nc4c5c(nc(OC[C@@]67CCCN6C[C@H](F)C7)nc5c3F)N3CCNC[C@@H]3CCO4)c12 [Example 2, 5-ethynyl-6-fluoro-4-((S)-1-fluoro-12-(((2R,7aS)-2-fluorotetrahydro-1H-pyrrolizin-7a(5H)-yl)methoxy)-6,6a,7,8,9,10-hexahydro-5H-4-oxa-3,8,10a,11,13-pentaazabenzo[4,5]cycloocta[1,2,3-de]naphthalen-2-yl)naphthalen-2-ol]
IC50 [1]: 0.00275 µM
IC50 [2]: 0.00289 µM
IC50 ([5]; Homo sapiens, ASPC1, 72 h): > 20 µM
IC50 [6]: > 20 µM

CCc1c(F)ccc2cc(O)cc(-c3nc4c5c(nc(OC[C@@]67CCCN6C[C@H](F)C7)nc5c3F)N3CCNC[C@@H]3CC(C)O4)c12 (stereo partly drawn) [Example 5, 5-ethyl-6-fluoro-4-((6aS)-1-fluoro-12-(((2R,7aS)-2-fluorotetrahydro-1H-pyrrolizin-7a(5H)-yl)methoxy)-5-methyl-6,6a,7,8,9,10-hexahydro-5H-4-oxa-3,8,10a,11,13-pentaazabenzo[4,5]cycloocta[1,2,3-de]naphthalen-2-yl)naphthalen-2-ol]
IC50 [1]: 0.0125 µM

N#Cc1c(N)sc2c(F)ccc(-c3c(Cl)c4c5c(nc(OC[C@@]67CCCN6C[C@H](F)C7)nc5c3F)N3CCCOC[C@H]3CO4)c12 (single isomer, unassigned) [Example 12b]
IC50 ([5]; Homo sapiens, ASPC1, 72 h): < 2 µM

N#Cc1c(N)sc2c(F)ccc(-c3c(Cl)c4c5c(nc(OC[C@@]67CCCN6C[C@H](F)C7)nc5c3F)N3CCCCC[C@@H]3CO4)c12 [Example 11a, 2-amino-4-(3-chloro-1-fluoro-13-(((2R,7aS)-2-fluorotetrahydro-1H-pyrrolizin-7a(5H)-yl)methoxy)-5a,6,7,8,9,10-hexahydro-5H-azepino[2',1':3,4][1,4]oxazepino[5,6,7-de]quinazolin-2-yl)-7-fluorobenzo[b]thiophene-3-carbonitrile]
IC50 ([5]; Homo sapiens, ASPC1, 72 h): 2 to 20 µM

CCc1c(F)ccc2cc(O)cc(-c3nc4c5c(nc(OC[C@@]67CCCN6C[C@H](F)C7)nc5c3F)N3CCNC[C@@H]3CCO4)c12 [Example 1, 5-ethyl-6-fluoro-4-((S)-1-fluoro-12-(((2R,7aS)-2-fluorotetrahydro-1H-pyrrolizin-7a(5H)-yl)methoxy)-6,6a,7,8,9,10-hexahydro-5H-4-oxa-3,8,10a,11,13-pentaazabenzo[4,5]cycloocta[1,2,3-de]naphthalen-2-yl)naphthalen-2-ol]
IC50 [1]: 0.00595 µM
IC50 [7]: 0.0065 µM
IC50 ([5]; Homo sapiens, ASPC1, 72 h): > 20 µM
